In ChEMBL document CHEMBL4340520, “Hederagenin amide derivatives as potential antiproliferative agents” (Eur J Med Chem, 2019):
Calls of active or inactive are those of the source. The calls are words filed in the database; no cut-off is given here.

Legend:
HT-29 [1] = experiment: Cytotoxicity against human HT-29 cells assessed as reduction in cell viability after 96 hrs by SRB assay; assay type: functional, cell-based; settings: HT-29, 96 h
FaDu = experiment: Cytotoxicity against human FADU cells assessed as reduction in cell viability after 96 hrs by SRB assay; assay type: functional, cell-based
MCF7 = experiment: Cytotoxicity against human MCF7 cells assessed as reduction in cell viability after 96 hrs by SRB assay; assay type: functional, cell-based; settings: MCF7, 96 h
NIH3T3 = experiment: Cytotoxicity against mouse NIH/3T3 cells assessed as reduction in cell viability after 96 hrs by SRB assay; assay type: cell-based; settings: NIH3T3, 96 h
SW-1736 = experiment: Cytotoxicity against human SW1736 cells assessed as reduction in cell viability after 96 hrs by SRB assay; assay type: functional, cell-based; settings: SW-1736, 96 h
A2780 [2] = experiment: Cytotoxicity against human A2780 cells assessed as reduction in cell viability after 96 hrs by SRB assay; assay type: functional, cell-based; settings: A2780, 96 h
A2780 [3] = experiment: Potency index, ratio of acetylated hederagenin EC50 to test compound EC50 for cytotoxicity against human A2780 cells; assay type: functional
A2780 [4] = experiment: Potency index, ratio of betulinic acid EC50 to test compound EC50 for cytotoxicity against human A2780 cells; assay type: functional
A2780 [5] = experiment: Potency index, ratio of hederagenin EC50 to test compound EC50 for cytotoxicity against human A2780 cells; assay type: functional
A2780 [6] = experiment: Cytotoxicity against human A2780 cells assessed as cell membrane permeability at 6 uM after 24 hrs by acridine orange/propidium iodide staining based fluorescence microscopic method; assay type: functional
A2780 [7] = experiment: Induction of apoptosis in human A2780 cells assessed as increase in secondary necrotic cells at 6 uM after 24 hrs by Annexin V-FITC/propidium iodide staining-based flow cytometric analysis; assay type: functional, cell-based
HT-29 [8] = experiment: Cytotoxicity against human HT-29 cells assessed as cell membrane permeability at 2.5 to 5 uM after 24 hrs by acridine orange/propidium iodide staining based fluorescence microscopic method; assay type: functional
HT-29 [9] = experiment: Potency index, ratio of betulinic acid EC50 to test compound EC50 for cytotoxicity against human HT-29 cells; assay type: functional
HT-29 [10] = experiment: Potency index, ratio of hederagenin EC50 to test compound EC50 for cytotoxicity against human HT-29 cells; assay type: functional

Row | SMILES | EC50 (HT-29 [1]) | EC50 (FaDu) | EC50 (MCF7) | EC50 (NIH3T3) | EC50 (SW-1736) | EC50 (A2780 [2]) | Ratio EC50 (A2780 [3]) | Ratio EC50 (A2780 [4]) | Ratio EC50 (A2780 [5]) | Activity (A2780 [6]) | Activity (A2780 [7]) | Activity (HT-29 [8]) | Ratio EC50 (HT-29 [9]) | Ratio EC50 (HT-29 [10])
1 | CC(=O)OC[C@@]1(C)[C@@H]2CC[C@]3(C)[C@H](CC=C4[C@@H]5CC(C)(C)CC[C@]5(C(=O)NCCCCN)CC[C@]43C)[C@@]2(C)CC[C@@H]1OC(C)=O | > 30 µM | > 30 µM | > 30 µM | > 30 µM | > 30 µM | > 30 µM |  |  |  |  |  |  |  | 
2 | CC(=O)OC[C@@]1(C)[C@@H]2CC[C@]3(C)[C@H](CC=C4[C@@H]5CC(C)(C)CC[C@]5(C(=O)NCc5cn(Cc6ccccc6F)nn5)CC[C@]43C)[C@@]2(C)CC[C@@H]1OC(C)=O | 3 µM | 2.8 µM | 2.8 µM | 6.9 µM | 4.7 µM | 1.3 µM |  |  |  |  |  |  |  | 
3 | CC(=O)OC[C@@]1(C)[C@@H]2CC[C@]3(C)[C@H](CC=C4[C@@H]5CC(C)(C)CC[C@]5(C(=O)NCCc5ccccn5)CC[C@]43C)[C@@]2(C)CC[C@@H]1OC(C)=O | 3.3 µM | 2.8 µM | 3.5 µM | 7.1 µM | 3.4 µM | 1.5 µM |  |  |  |  |  |  |  | 
4 | CC(=O)OC[C@@]1(C)[C@@H]2CC[C@]3(C)[C@H](CC=C4[C@@H]5CC(C)(C)CC[C@]5(C(=O)N5CCCC5)CC[C@]43C)[C@@]2(C)CC[C@@H]1OC(C)=O | 1.8 µM | 1.6 µM | 2.5 µM | 9.6 µM | 1.7 µM | 0.4 µM | 29 | 32 | 70 |  |  |  |  | 
5 | COC(=O)C(NC(=O)[C@]12CCC(C)(C)C[C@H]1C1=CC[C@@H]3[C@@]4(C)CC[C@H](OC(C)=O)[C@@](C)(COC(C)=O)[C@@H]4CC[C@@]3(C)[C@]1(C)CC2)c1ccccc1 (some centres not stated) | 5.1 µM | 4.6 µM | 5.7 µM | 12.9 µM | 6.3 µM | 3.3 µM |  |  |  |  |  |  |  | 
6 | CC(=O)OC[C@@]1(C)[C@@H]2CC[C@]3(C)[C@H](CC=C4[C@@H]5CC(C)(C)CC[C@]5(C(=O)NCCN5CCOCC5)CC[C@]43C)[C@@]2(C)CC[C@@H]1OC(C)=O | 2.8 µM | 3.3 µM | 3.8 µM | 7.6 µM | 3.9 µM | 1.2 µM |  |  |  |  |  |  |  | 
7 | COC(=O)CNC(=O)[C@]12CCC(C)(C)C[C@H]1C1=CC[C@@H]3[C@@]4(C)CC[C@H](OC(C)=O)[C@@](C)(COC(C)=O)[C@@H]4CC[C@@]3(C)[C@]1(C)CC2 | 3.7 µM | 3.1 µM | 4.5 µM | 8.4 µM | 4.8 µM | 1.7 µM |  |  |  |  |  |  |  | 
8 | CC(=O)OC[C@@]1(C)[C@@H]2CC[C@]3(C)[C@H](CC=C4[C@@H]5CC(C)(C)CC[C@]5(C(=O)O)CC[C@]43C)[C@@]2(C)CC[C@@H]1OC(C)=O | 19 µM | 15.4 µM | 9.8 µM | 9.6 µM | 17.7 µM | 11.9 µM |  |  |  |  |  |  |  | 
9 | CC1(C)CC[C@]2(C(=O)O)CC[C@]3(C)C(=CC[C@@H]4[C@@]5(C)CC[C@H](O)[C@@](C)(CO)[C@@H]5CC[C@]43C)[C@@H]2C1 [HEDERAGENIN] | > 30 µM | > 30 µM | > 30 µM | > 30 µM | > 30 µM | > 30 µM |  |  |  |  |  |  |  | 
10 | CC1(C)CC[C@]2(C(=O)N3CCCCC3)CC[C@]3(C)C(=CC[C@@H]4[C@@]5(C)CC[C@H](O)[C@@](C)(CO)[C@@H]5CC[C@]43C)[C@@H]2C1 | 18.3 µM | 20.8 µM | 7.8 µM | 18.5 µM | 19.2 µM | 18.2 µM |  |  |  |  |  |  |  | 
11 | CC1(C)CC[C@]2(C(=O)NCCCCN)CC[C@]3(C)C(=CC[C@@H]4[C@@]5(C)CC[C@H](O)[C@@](C)(CO)[C@@H]5CC[C@]43C)[C@@H]2C1 | 6.1 µM | > 30 µM | > 30 µM | 7 µM | 12.2 µM | 9.7 µM |  |  |  |  |  |  |  | 
12 | CC(=O)OC[C@@]1(C)[C@@H]2CC[C@]3(C)[C@H](CC=C4[C@@H]5CC(C)(C)CC[C@]5(C(=O)N5CCCCC5)CC[C@]43C)[C@@]2(C)CC[C@@H]1OC(C)=O | 5.7 µM | 5.5 µM | 6.2 µM | 15.2 µM | 7.1 µM | 2.8 µM |  |  |  |  |  |  |  | 
13 | CC(=O)OC[C@@]1(C)[C@@H]2CC[C@]3(C)[C@H](CC=C4[C@@H]5CC(C)(C)CC[C@]5(C(=O)NCCN5CCCCC5)CC[C@]43C)[C@@]2(C)CC[C@@H]1OC(C)=O | 2.1 µM | 4.3 µM | 3.2 µM | 3.2 µM | 4.7 µM | 2.1 µM |  |  |  |  |  |  |  | 
14 | CC1(C)CC[C@]2(C(=O)N3CCCC3)CC[C@]3(C)C(=CC[C@@H]4[C@@]5(C)CC[C@H](O)[C@@](C)(CO)[C@@H]5CC[C@]43C)[C@@H]2C1 | 1.2 µM | 2.8 µM |  | 2.2 µM | 3.6 µM | 3 µM |  |  |  | Active | Active | Active | 15 | 30
15 | CC(=O)OC[C@@]1(C)[C@@H]2CC[C@]3(C)[C@H](CC=C4[C@@H]5CC(C)(C)CC[C@]5(C(=O)NCc5cn(Cc6ccccc6[N+](=O)[O-])nn5)CC[C@]43C)[C@@]2(C)CC[C@@H]1OC(C)=O | 1.9 µM | 2.8 µM | 2.7 µM | 2.1 µM | 3.8 µM | 1.6 µM |  |  |  |  |  |  |  | 
16 | COC(=O)C(NC(=O)[C@]12CCC(C)(C)C[C@H]1C1=CC[C@@H]3[C@@]4(C)CC[C@H](O)[C@@](C)(CO)[C@@H]4CC[C@@]3(C)[C@]1(C)CC2)c1ccccc1 (some centres not stated) | > 30 µM | > 30 µM |  | > 30 µM | > 30 µM | > 30 µM |  |  |  |  |  |  |  | 
17 | CC(=O)OC[C@@]1(C)[C@@H]2CC[C@]3(C)[C@H](CC=C4[C@@H]5CC(C)(C)CC[C@]5(C(=O)NCCN5CCCC5)CC[C@]43C)[C@@]2(C)CC[C@@H]1OC(C)=O | 1.5 µM | 4 µM | 2.6 µM | 2.2 µM | 3.6 µM | 1.9 µM |  |  |  |  |  |  |  | 
18 | C=C(C)[C@@H]1CC[C@]2(C(=O)O)CC[C@]3(C)[C@H](CC[C@@H]4[C@@]5(C)CC[C@H](O)C(C)(C)[C@@H]5CC[C@]43C)[C@@H]12 [BETULINIC ACID] |  |  | 12 µM |  |  |  |  |  |  |  |  |  |  | 
19 | COC(=O)CNC(=O)[C@]12CCC(C)(C)C[C@H]1C1=CC[C@@H]3[C@@]4(C)CC[C@H](O)[C@@](C)(CO)[C@@H]4CC[C@@]3(C)[C@]1(C)CC2 | > 30 µM | > 30 µM |  | > 30 µM | > 30 µM | > 30 µM |  |  |  |  |  |  |  | 
20 | CC1(C)CC[C@]2(C(=O)N3CCNCC3)CC[C@]3(C)C(=CC[C@@H]4[C@@]5(C)CC[C@H](O)[C@@](C)(CO)[C@@H]5CC[C@]43C)[C@@H]2C1 | 22.5 µM | > 30 µM |  | 17.4 µM | > 30 µM | 19.4 µM |  |  |  |  |  |  |  | 
21 | CC(=O)OC[C@@]1(C)[C@@H]2CC[C@]3(C)[C@H](CC=C4[C@@H]5CC(C)(C)CC[C@]5(C(=O)NCc5cn(Cc6ccccc6Cl)nn5)CC[C@]43C)[C@@]2(C)CC[C@@H]1OC(C)=O | 1.7 µM | 2.2 µM | 2.6 µM | 3.6 µM | 1.8 µM | 1.7 µM |  |  |  |  |  |  |  | 
22 | CC(=O)OC[C@@]1(C)[C@@H]2CC[C@]3(C)[C@H](CC=C4[C@@H]5CC(C)(C)CC[C@]5(C(=O)N5CCNCC5)CC[C@]43C)[C@@]2(C)CC[C@@H]1OC(C)=O | 6.7 µM | 5.3 µM | 6.1 µM | 10.8 µM | 9 µM | 1.9 µM |  |  |  |  |  |  |  | 
23 | CC(=O)OC[C@@]1(C)[C@@H]2CC[C@]3(C)[C@H](CC=C4[C@@H]5CC(C)(C)CC[C@]5(C(=O)NCc5cn(Cc6ccccc6Br)nn5)CC[C@]43C)[C@@]2(C)CC[C@@H]1OC(C)=O | 1.9 µM | 2.5 µM | 3 µM | 3.4 µM | 2.3 µM | 1.7 µM |  |  |  |  |  |  |  | 
